Target: T1, nnLuz (Neonothopanus nambi, UniProt A0A3G9JYH7, I3S/N4T/F11L/I63T/T99P/T192S/A199P)
T1 construct: gene luz; HiBiT-tag fusion, expressed in yeast Pichia pastoris GS115, clarified lysate; codon-optimized synthetic gene
Assay: luminescence, Michaelis-Menten fit, HiBiT-normalized
Format: biochemical
Conditions: yeast lysate; 0.2 M sodium phosphate, 0.5 M Na2SO4, pH 8; Fln 0.0244-50 uM; DDM, thioglycolic acid; variant nnLuz_v4

T1 sequence (A0A3G9JYH7 whole entry I3S/N4T/F11L/I63T/T99P/T192S/A199P, the tested form may be a part): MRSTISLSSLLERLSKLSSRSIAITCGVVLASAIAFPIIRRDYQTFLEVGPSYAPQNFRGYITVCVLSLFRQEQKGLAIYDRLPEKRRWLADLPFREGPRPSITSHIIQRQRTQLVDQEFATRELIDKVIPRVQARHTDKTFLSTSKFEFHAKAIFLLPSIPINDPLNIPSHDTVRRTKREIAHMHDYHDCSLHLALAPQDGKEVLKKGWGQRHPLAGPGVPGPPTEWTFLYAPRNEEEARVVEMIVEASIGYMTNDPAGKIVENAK

**Q.** How did the KM turn out when `O=c1oc(/C=C/c2ccc(O)c(O)c2)cc(O)c1O` [Fln, fungal luciferin] was run?
**A.** Yeast strains expressing nnLuz_wt/v4–HiBIT fusions were inoculated into YPD medium

From publication PMC10927554, “An improved pathway for autonomous bioluminescence imaging in eukaryotes” (Nature Methods, 2024)
